Measurements reported in EPA's ToxRefDB 2.

Key:
[1] = system: dog; conditions: Subchronic oral toxicity in nonrodent, beagle, Capsule, dose end: 26 week, group: systemic
[2] = system: rat; conditions: Combined chronic toxicity/carcinogenicity, fischer, Oral, Feed, dose end: 2 year, group: systemic
[3] = system: rat; conditions: Multigenerational reproductive toxicity study, sprague dawley, Oral, Feed, dose end: 2 generation
[4] = system: mouse; conditions: Subchronic oral toxicity in rodents, b6c3f1, Feed, dose end: 13 week, group: systemic
[5] = system: mouse; conditions: Carcinogenicity, b6c3f1, Oral, Feed, dose end: 2 year, group: systemic
[6] = system: rat; conditions: Chronic toxicity, fischer, Oral, Feed, dose end: 103 week, group: systemic
[7] = system: rat; conditions: Carcinogenicity; fischer; Oral; Feed; dose end: 103 week; group: systemic; systemic / pathology microscopic / pituitary gland / hyperplasia
[8] = system: mouse; conditions: Carcinogenicity; b6c3f1; Oral; Feed; dose end: 103 week; group: systemic; systemic / in life observation / body weight / body weight
[9] = system: rat; conditions: Prenatal developmental toxicity study, other, Oral, Gavage/Intubation, dose end: 19 GD
[10] = system: rat; conditions: Subchronic oral toxicity in rodents, fischer, Feed, dose end: 13 week, group: systemic
[11] = systemic / clinical chemistry / cholesterol / cholesterol + systemic / clinical chemistry / glucose / glucose + systemic / hematology / …
[12] = systemic / in life observation / body weight / body weight + systemic / in life observation / body weight / body weight gain + systemic / in…
[13] = systemic / in life observation / body weight / body weight + systemic / in life observation / food consumption / food consumption + systemic…
[14] = group: offspring, systemic / in life observation / body weight / offspring (pup) weight + systemic / in life observation / body weight / offspring (pup) …
[15] = group: parental, systemic / in life observation / body weight / body weight + systemic / in life observation / body weight / body weight gain
[16] = group: reproductive, reproductive / offspring survival early / litter size / litter size + reproductive / offspring survival early / birth index / live birth …
[17] = systemic / in life observation / body weight / body weight + systemic / in life observation / mortality / mortality + systemic / organ …
[18] = systemic / organ weight / liver / relative to body weight + systemic / organ weight / liver / absolute
[19] = systemic / in life observation / body weight / body weight + systemic / in life observation / body weight / body weight gain
[20] = systemic / pathology microscopic / skin / subcutaneous mass
[21] = group: developmental, systemic / in life observation / body weight / fetal weight
[22] = group: maternal, systemic / in life observation / clinical signs / abnormal movements + systemic / in life observation / clinical signs / salivation
[23] = systemic / in life observation / body weight / body weight + systemic / in life observation / clinical signs / fur (altered appearance) + …

C=C(C)[C@H]1Cc2c(ccc3c2O[C@@H]2COc4cc(OC)c(OC)cc4[C@@H]2C3=O)O1 [Rotenone]
LOAEL [1, 11]: 10 mg/kg/day
NEL [1, 11]: 0.4 mg/kg/day
NOAEL [1, 11]: 2 mg/kg/day
LEL [1, 12]: 2 mg/kg/day
LOAEL ([2]; systemic / in life observation / body weight / body weight + systemic / in life observation / food consumption / food consumption): 1.88 mg/kg/day
LEL [2, 13]: 1.88 mg/kg/day
NEL [2, 13]: 0.375 mg/kg/day
NOAEL [2, 13]: 0.375 mg/kg/day
LEL [3, 14]: 3.1 mg/kg/day
LOAEL [3, 14]: 3.1 mg/kg/day
NEL [3, 14]: 0.6 mg/kg/day
NOAEL [3, 14]: 0.6 mg/kg/day
LEL [3, 15]: 3 mg/kg/day
LOAEL [3, 15]: 3 mg/kg/day
NEL [3, 15]: 0.6 mg/kg/day
NOAEL [3, 15]: 0.6 mg/kg/day
LEL [3, 16]: 7 mg/kg/day
LOAEL [3, 16]: > 7 mg/kg/day
NEL [3, 16]: 3.1 mg/kg/day
NOAEL [3, 16]: ≥ 7 mg/kg/day
LOAEL [4, 17]: > 7500 mg/kg/day
NOAEL [4, 17]: ≥ 7500 mg/kg/day
LEL [4, 18]: 90 mg/kg/day
NEL [4, 18]: < 90 mg/kg/day
LOAEL [5, 19]: 111 mg/kg/day
NOAEL [5, 19]: < 111 mg/kg/day
LEL [5, 12]: 111 mg/kg/day
NEL [5, 12]: < 111 mg/kg/day
LOAEL ([6]; systemic / pathology microscopic / pituitary gland / hyperplasia + systemic / pathology microscopic / parathyroid gland / hyperplasia): 3.4 mg/kg/day
NOAEL ([6]; systemic / pathology microscopic / pituitary gland / hyperplasia + systemic / pathology microscopic / parathyroid gland / hyperplasia + …): 1.7 mg/kg/day
LEL [6, 20]: 1.8 mg/kg/day
NEL [6, 20]: < 1.8 mg/kg/day
LEL [7]: 3.4 mg/kg/day
LOAEL [7]: > 3.4 mg/kg/day
NEL [7]: 1.7 mg/kg/day
NOAEL [7]: ≥ 3.4 mg/kg/day
LEL [8]: 111 mg/kg/day
LOAEL [8]: > 242 mg/kg/day
NEL [8]: < 111 mg/kg/day
NOAEL [8]: ≥ 242 mg/kg/day
LEL [9, 21]: 6 mg/kg/day
LOAEL [9, 21]: 6 mg/kg/day
NEL [9, 21]: 3 mg/kg/day
NOAEL [9, 21]: 3 mg/kg/day
LEL [9, 22]: 0.75 mg/kg/day
LOAEL [9, 22]: 0.75 mg/kg/day
NEL [9, 22]: < 0.75 mg/kg/day
NOAEL [9, 22]: < 0.75 mg/kg/day
LOAEL [10, 23]: > 60 mg/kg/day
NEL [10, 23]: 3.75 mg/kg/day
NOAEL [10, 23]: ≥ 60 mg/kg/day
LEL ([10]; systemic / in life observation / body weight / body weight + systemic / pathology microscopic / bone marrow / atrophy + systemic / pathology…): 7.5 mg/kg/day
